Literature values in US10912819B2, “Neuroprotective peptides derived from activity-dependent neuroprotective protein for treatment of neurological diseases” (priority 2016, dated 2021).
Like-named read-outs stand apart in the source and are kept apart here.

How the values were obtained:
[1] = not told; cited from earlier work
[2] = ambient temperatures and atmospheric pressures, cited from earlier work
cornea = conditions: Kusano et al. 2010; cited from earlier work
rabbits = conditions: cited from earlier work

Compound | extent of permeation increase by preservative [1] | permeation in vitro in the presence of preservatives [1] | period of stability ([2]; Anhydrous) [years] | period of stability ([2]; Hemihydrate) [years] | effect on corneal permeability (cornea) | skin irritation (rabbits; rabbit skin, 24 hour exposure) | signs of toxicity (rabbits; rabbit, in vivo, 2000 mg/kg) | acute dermal LD50 (rabbits; rabbits) | mortality (rabbits; single dermal application of 2000 mg/kg) [%] | effect on cell survival (cornea)
NC(=O)CC[C@@H]1NC(=O)[C@H](Cc2ccccc2)NC(=O)[C@H](Cc2ccc(O)cc2)NC(=O)CCSSC[C@@H](C(=O)N2CCC[C@H]2C(=O)N[C@H](CCCN=C(N)N)C(=O)NCC(N)=O)NC(=O)[C@H](CC(N)=O)NC1=O [DDAVP, desmopressin acetate] | chlorobutanol<benzalkonium<sorbate | always increased | – | – | – | – | – | – | – | –
CC(C)(O)C(Cl)(Cl)Cl [chlorobutanol, trichloro-2-methyl-2-propanol] | – | – | 3 | 5 | not chlorobutanol affect corneal permeability | Non-irritant | no signs of toxicity | greater than 2000 mg/kg | 10 | –
benzalkonium chloride | – | – | – | – | affect corneal permeability | – | – | – | – | adversely affected cell survival
